{"source": "ChEMBL document CHEMBL5036303", "about": "“Cyclic Analogues of the Chemerin C-Terminus Mimic a Loop Conformation Essential for Activating the Chemokine-like Receptor 1” (J Med Chem, 2021)", "key": {"Chemerin-like receptor 1 [1]": {"molecular_target": "T1, Chemerin-like receptor 1 (Homo sapiens, UniProt Q99788)", "T1 sequence (Q99788 whole entry)": "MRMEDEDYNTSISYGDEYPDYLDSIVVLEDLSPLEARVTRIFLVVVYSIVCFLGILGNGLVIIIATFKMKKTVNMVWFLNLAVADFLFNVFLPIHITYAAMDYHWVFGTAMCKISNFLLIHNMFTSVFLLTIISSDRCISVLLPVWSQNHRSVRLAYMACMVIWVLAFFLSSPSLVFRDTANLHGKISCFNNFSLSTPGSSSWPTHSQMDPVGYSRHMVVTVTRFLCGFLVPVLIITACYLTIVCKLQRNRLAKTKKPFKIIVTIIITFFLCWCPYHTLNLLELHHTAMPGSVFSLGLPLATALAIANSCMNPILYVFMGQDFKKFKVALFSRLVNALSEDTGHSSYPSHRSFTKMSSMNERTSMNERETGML", "assay": "Agonist activity at wild type CMKL1 (unknown origin) expressed in COS-7 cells assessed as increase in calcium flux measured for 40 sec by Fluo-2 AM dye based assay", "format": "functional, cell-based"}, "[2]": {"assay": "Agonist activity at CMKL1 F479A mutant (unknown origin) expressed in COS-7 cells assessed as increase in calcium flux measured for 40 sec by Fluo-2 AM dye based assay", "format": "cell-based"}, "[3]": {"assay": "Agonist activity at CMKL1 Y263A mutant (unknown origin) expressed in COS-7 cells assessed as increase in calcium flux measured for 40 sec by Fluo-2 AM dye based assay", "format": "cell-based"}, "[4]": {"assay": "Agonist activity at CMKL1 F476A mutant (unknown origin) expressed in COS-7 cells assessed as increase in calcium flux measured for 40 sec by Fluo-2 AM dye based assay", "format": "cell-based"}, "[5]": {"assay": "Agonist activity at CMKL1 F476A mutant (unknown origin) expressed in COS-7 cells assessed as accumulation of inositol phosphate incubated for 3 hrs by liquid scintillation counting method", "format": "cell-based", "details": "COS-7, 3 h"}, "[6]": {"assay": "Agonist activity at CMKL1 E658A mutant (unknown origin) expressed in COS-7 cells assessed as increase in calcium flux measured for 40 sec by Fluo-2 AM dye based assay", "format": "cell-based"}, "[7]": {"assay": "Agonist activity at CMKL1 E658A mutant (unknown origin) expressed in COS-7 cells assessed as accumulation of inositol phosphate incubated for 3 hrs by liquid scintillation counting method", "format": "cell-based", "details": "COS-7, 3 h"}, "[8]": {"assay": "Agonist activity at CMKL1 F479A mutant (unknown origin) expressed in COS-7 cells assessed as accumulation of inositol phosphate incubated for 3 hrs by liquid scintillation counting method", "format": "cell-based", "details": "COS-7, 3 h"}, "[9]": {"assay": "Agonist activity at CMKL1 Y268A mutant (unknown origin) expressed in COS-7 cells assessed as increase in calcium flux measured for 40 sec by Fluo-2 AM dye based assay", "format": "cell-based"}, "[10]": {"assay": "Agonist activity at CMKL1 Y268L mutant (unknown origin) expressed in COS-7 cells assessed as increase in calcium flux measured for 40 sec by Fluo-2 AM dye based assay", "format": "cell-based"}, "Chemerin-like receptor 1 [11]": {"molecular_target": "T1, Chemerin-like receptor 1", "assay": "Agonist activity at Wild type CMKL1 (unknown origin) expressed in COS-7 cells assessed as accumulation of inositol phosphate incubated for 3 hrs by liquid scintillation counting method", "format": "functional, cell-based"}}, "note": "Where a SMILES comes first, the peptide text is derived from it."}
{"smiles": "C[C@H](NC(=O)[C@H](Cc1ccccc1)NC(=O)[C@H](CCC(N)=O)NC(=O)CNC(=O)[C@@H]1CCCN1C(=O)[C@H](Cc1ccccc1)NC(=O)[C@@H](N)Cc1ccc(O)cc1)C(=O)NCc1ccccc1", "values": [{"measurement": "EC50", "setting": "Chemerin-like receptor 1 [1]", "result": 32, "unit": "nM"}]}
{"smiles": "C[C@@H]1NC(=O)[C@H](Cc2ccccc2)NC(=O)[C@H](CCC(N)=O)NC(=O)[C@H](NC(=O)[C@@H]2CCCN2C(=O)[C@H](Cc2ccccc2)NC(=O)[C@@H](N)Cc2ccc(O)cc2)CCSSC[C@@H](C(=O)O)NC(=O)[C@H](Cc2ccccc2)NC1=O", "note": "(HELM PEPTIDE1{Y.F.P.[O=C([C@@H](CCS[*:3])N[*:1])[*:2]].Q.F.A.F.C}$PEPTIDE1,PEPTIDE1,4:R3-9:R3$$$V2.0)", "values": [{"measurement": "EC50", "setting": "[2]; read-out: EC50", "result": "> 1000", "unit": "nM"}, {"measurement": "EC50", "setting": "[2]; read-out: pEC50 (converted)", "result": "> 1000", "unit": "nM"}, {"measurement": "EC50", "setting": "[3]; read-out: EC50", "result": 197, "unit": "nM"}, {"measurement": "EC50", "setting": "[3]; read-out: pEC50 (converted)", "result": 200, "unit": "nM"}, {"measurement": "EC50", "setting": "[4]; read-out: EC50", "result": 85, "unit": "nM"}, {"measurement": "EC50", "setting": "[4]; read-out: pEC50 (converted)", "result": 85.1, "unit": "nM"}, {"measurement": "EC50", "setting": "[5]", "result": 3890, "unit": "nM"}, {"measurement": "EC50", "setting": "[6]; read-out: EC50", "result": "> 1000", "unit": "nM"}, {"measurement": "EC50", "setting": "[6]; read-out: pEC50 (converted)", "result": "> 1000", "unit": "nM"}, {"measurement": "EC50", "setting": "[7]; read-out: EC50", "result": "> 10000", "unit": "nM"}, {"measurement": "EC50", "setting": "[7]; read-out: pEC50 (converted)", "result": "> 10000", "unit": "nM"}, {"measurement": "EC50", "setting": "[8]", "result": "> 10000", "unit": "nM"}, {"measurement": "EC50", "setting": "[9]; read-out: EC50", "result": "> 1000", "unit": "nM"}, {"measurement": "EC50", "setting": "[9]; read-out: pEC50 (converted)", "result": "> 1000", "unit": "nM"}]}
{"smiles": "CC(C)C[C@H](NC(=O)[C@H](CCC(N)=O)NC(=O)CNC(=O)[C@@H]1CCCN1C(=O)[C@H](Cc1ccccc1)NC(=O)[C@@H](N)Cc1ccc(O)cc1)C(=O)N[C@@H](C)C(=O)N[C@@H](Cc1ccccc1)C(=O)N[C@@H](CO)C(=O)O", "values": [{"measurement": "EC50", "setting": "Chemerin-like receptor 1 [1]", "result": 195, "unit": "nM"}, {"measurement": "EC50", "setting": "[10]; read-out: EC50", "result": "> 1000", "unit": "nM"}, {"measurement": "EC50", "setting": "[10]; read-out: pEC50 (converted)", "result": "> 1000", "unit": "nM"}]}
{"smiles": "C[C@@H]1NC(=O)[C@H](Cc2ccccc2)NC(=O)[C@H](CCC(N)=O)NC(=O)[C@@H](NC(=O)[C@@H]2CCCN2C(=O)[C@H](Cc2ccccc2)NC(=O)[C@@H](N)Cc2ccc(O)cc2)CSSC[C@@H](C(=O)O)NC(=O)[C@H](Cc2ccccc2)NC1=O", "note": "(HELM PEPTIDE1{Y.F.P.C.Q.F.A.F.C}$PEPTIDE1,PEPTIDE1,4:R3-9:R3$$$V2.0)", "values": [{"measurement": "EC50", "setting": "Chemerin-like receptor 1 [1]", "result": 64, "unit": "nM"}, {"measurement": "EC50", "setting": "Chemerin-like receptor 1 [11]", "result": 150, "unit": "nM"}]}
{"smiles": "C[C@H](NC(=O)[C@H](Cc1ccccc1)NC(=O)[C@H](CCC(N)=O)NC(=O)CNC(=O)[C@@H]1CCCN1C(=O)[C@H](Cc1ccccc1)NC(=O)[C@@H](N)Cc1ccc(O)cc1)C(=O)N[C@@H](Cc1ccccc1)C(=O)O", "note": "(H-YFPGQFAF-OH)", "values": [{"measurement": "EC50", "setting": "Chemerin-like receptor 1 [1]", "result": 20, "unit": "nM"}]}
